Data published in patent US9566330B2, “Immunogenic composition for immune system modulation and use thereof, method for treating and preventing diseases, method for inducing cell regeneration and method for restoring immune response” (priority 2011, dated 2017).

Legend:
[1] = tested on: multiresistant Acinetobacter baunnamii; test: Cultures of the injury area, peripheral blood and central catheter: antibiotic sensitivity; format: cell-based, Acinetobacter baumannii
Experimental: Initial assessment of the patient's injuries in the operating room on 29 Jan. […] As described, the DECA immunotherapy was applied to these areas. It is interesting to note that on this occasion cultures of internal secretions and tissue fragments were performed.

[2] = tested on: Septicemia (Pseudomonas aeruginosa, Acinetobacter baunnamii, Proteus mirabiles); test: Clinical case, patient J-P: septicemia with infected complex wounds; format: in vivo, human; details: 6 Feb. 2011; Polymyxin B 20,000 IU/kg twice daily and other antimicrobials
Source text: The patient was admitted to the ICU of Hospital Alemao Oswaldo Cruz for debridement and application of treatment with DECA which took the following form: • Application of 1.8 cc of the DECA composition divided into 2 applications of 0.9 cc per composition along the 10 main lymphatic territories. • 3-4 cm distance margin between applications to facilitate the reading of the evolution of the treatment at an interval of 4±1 days. These applications were made together with the surgical debridement (on average 1 to 2 times per week). • Administration of 36 extra perilesional compositions of 1.8 cc of each DECA in two applications of 0.9 cc per set, skirting the following open injuries without possibility of suture: the left inguinal region, the lateral side of the left thigh, the anterior left thigh and medial aspect of the left thigh, instep region and left lateral malleolus of the right leg. • Application of recombinant human interleukin-2 at low doses, at a receptor saturation level with a concentration of 1 to 2 million units per m^2 of the patient's body surface located in the region of the extra DECA applications. […]

Polymyxin B
Pre-immunotherapy cultures (29/01/2011): sensitivity of the isolate ([1]; Central catheter): baumannii only sensitive | Pre-immunotherapy cultures (29/01/2011): sensitivity of the isolate ([1]; Injury in the left thigh): baumannii only sensitive | Pre-immunotherapy cultures (29/01/2011): sensitivity of the isolate ([1]; Peripheric blood): baumannii only sensitive | sensitivity of the isolate ([1]; isolates of left thigh wound, peripheral blood and central catheter, result of 1 Feb. 2011): sensitive | toxicity [2]: acute renal failure with oliguria

C[C@H]1[C@H](NC(=O)/C(=N\OC(C)(C)C(=O)O)c2csc(N)n2)C(=O)N1S(=O)(=O)O [Aztreonam]
Pre-immunotherapy cultures (29/01/2011): sensitivity of the isolate ([1]; Central catheter): baumannii only sensitive | Pre-immunotherapy cultures (29/01/2011): sensitivity of the isolate ([1]; Injury in the left thigh): baumannii only sensitive
